In patent publication US6753335B2, “Quinolinyl-piperidin-4-ylidene-methyl-benzamide derivatives for the treatment of pain” (AstraZeneca AB, priority 2000, dated 2004) one finds Emax data, which are given here for 9 compounds.

Holding throughout (type): biochemical
Test [1] concerns the target T1, delta receptors, mouse brain (Mus musculus, UniProt P32300).
T1 construct: from tissue; host or cells: mouse brain homogenate
Description: GTP[γ]35S binding functional assay, homogenised mouse brain membranes. How it is done:
(§1) B. Mouse and rat brains were weighed and rinsed in ice-cold PBS (containing 2.5 mM EDTA, pH 7.4). The brains were homogenized with a polytron for 15 sec (mouse) or 30 sec (rat) in ice-cold lysis buffer (50mM Tris, pH 7.0, 2.5mM EDTA, with phenylmethylsulfonyl fluoride added just prior use to […] from a 0.5 M stock in DMSO:ethanol).
(§2) The agonist activity of the compounds is measured by determining the degree to which the compounds receptor complex activates the binding of GTP to G-proteins to which the receptors are coupled. In the GTP binding assay, GTP[γ]^35S is combined with test compounds and membranes from HEK-293S cells expressing the cloned human opioid receptors or from homogenised rat and mouse brain. Agonists stimulate GTP[γ]^35S binding in these membranes. The EC50 and Emax values of compounds are determined from dose-response curves. Right shifts of the dose response curve by the delta antagonist naltindole are performed to verify that agonist activity is mediated through delta receptors.

In test [2] the target is T2, delta receptors, rat brain (Rattus norvegicus, UniProt P33533).
T2 construct: from tissue; host or cells: rat brain homogenate
Description: GTP[γ]35S binding functional assay, homogenised rat brain membranes. How it is done:
as §1, §2
Background: Binding of GTPγS marks nucleotide exchange on a G protein.

In the next test the target is T3, cloned human δ receptor (Homo sapiens, UniProt P41143).
T3 construct: expressed in transfected cells; host or cells: human 293S (HEK-293S) cells, geneticin-selected
In words: GTP[γ]35S binding functional assay, membranes from HEK-293S cells expressing cloned human opioid receptors (HDELTA). How it is done: A. Human 293S cells expressing cloned human μ, δ, and κ receptors and neomycin resistance were grown in suspension at 37° C. and 5% CO2 in shaker flasks containing calcium-free DMEM10% FBS, 5% BCS, 0.1% Pluronic F-68, and 600 μg/ml geneticin.
Cells were pelleted and resuspended in lysis buffer (50 mM Tris, pH 7.0, 2.5 mM EDTA, with PMSF added just prior to use to 0.1 mM from a 0.1 M stock in ethanol), incubated on ice for 15 min, then homogenized with a polytron for 30 sec. The suspension was spun at 1000 g (max) for 10 min at 4° C. The supernatant was saved on ice and the pellets resuspended and spun as before. The supernatants from both spins were combined and spun at 46,000 g (max) for 30 min. The pellets were resuspended in cold Tris buffer (50 mM Tris/Cl, pH 7.0) and spun again. The final pellets were resuspended in membrane buffer (50 mM Tris, […], pH 7.0). Aliquots (1 ml) in polypropylene tubes were frozen in dry ice/ethanol and stored at −70° C. until use. The protein concentrations were determined by a modified Lowry assay with sodium dodecyl sulfate.
as §2

T2 sequence (P33533 whole entry): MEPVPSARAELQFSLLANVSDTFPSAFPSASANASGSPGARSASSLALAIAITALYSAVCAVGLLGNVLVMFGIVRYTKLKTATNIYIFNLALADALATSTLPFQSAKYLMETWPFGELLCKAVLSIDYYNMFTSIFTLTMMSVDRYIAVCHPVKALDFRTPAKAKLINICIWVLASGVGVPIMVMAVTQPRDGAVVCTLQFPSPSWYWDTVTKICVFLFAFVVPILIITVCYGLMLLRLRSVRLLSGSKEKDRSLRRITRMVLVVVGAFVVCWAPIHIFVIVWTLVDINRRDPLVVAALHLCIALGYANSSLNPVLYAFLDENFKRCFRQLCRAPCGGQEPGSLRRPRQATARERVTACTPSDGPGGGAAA
T1 sequence (P32300 whole entry): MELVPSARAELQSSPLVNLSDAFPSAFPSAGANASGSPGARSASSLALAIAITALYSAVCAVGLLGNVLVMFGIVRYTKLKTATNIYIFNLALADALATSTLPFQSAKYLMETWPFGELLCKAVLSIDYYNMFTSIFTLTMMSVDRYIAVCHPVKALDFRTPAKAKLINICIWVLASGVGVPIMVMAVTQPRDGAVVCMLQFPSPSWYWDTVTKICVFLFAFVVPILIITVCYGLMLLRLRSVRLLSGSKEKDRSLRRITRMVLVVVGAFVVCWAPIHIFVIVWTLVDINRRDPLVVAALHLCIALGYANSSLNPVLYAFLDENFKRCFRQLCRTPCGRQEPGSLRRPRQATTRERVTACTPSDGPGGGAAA
T3 sequence (P41143 whole entry): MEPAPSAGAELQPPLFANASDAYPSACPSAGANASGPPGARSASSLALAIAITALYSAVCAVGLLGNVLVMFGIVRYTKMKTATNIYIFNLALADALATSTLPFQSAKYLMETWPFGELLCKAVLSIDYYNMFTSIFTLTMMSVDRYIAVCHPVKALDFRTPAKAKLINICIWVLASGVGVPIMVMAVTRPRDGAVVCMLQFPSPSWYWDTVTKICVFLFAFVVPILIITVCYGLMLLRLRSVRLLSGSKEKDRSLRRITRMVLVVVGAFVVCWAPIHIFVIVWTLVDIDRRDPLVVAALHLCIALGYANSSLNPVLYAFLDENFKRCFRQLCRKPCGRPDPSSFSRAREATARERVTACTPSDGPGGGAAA

With `CCN(CC)C(=O)c1ccc(C(=C2CCN(Cc3ccccc3)CC2)c2cccc3cccnc23)cc1` [Example 2, N,N-diethyl-4-(8-quinolinyl-N-benzyl-piperidin-4-ylidene-methyl)-benzamide], the Emax – broadly, the size of the effect at its maximum, as opposed to the concentration needed – in test [1] came to 112%; in test [2], 104%; on cloned human δ receptor, 90.5%.

Consider `CCN(CC)C(=O)c1ccc(C(=C2CCN(Cc3ccco3)CC2)c2cccc3cccnc23)cc1` [Example 3, N,N-diethyl-4-[[1-(2-furylmethyl)-4-piperidinylidene](8-quinoline)methyl]benzamide], for which the Emax in test [1] turned out to be 146%; in test [2], 130%; on cloned human δ receptor it was 103%.

As to `CCN(CC)C(=O)c1ccc(C(=C2CCN(Cc3cccs3)CC2)c2cccc3cccnc23)cc1` [Example 4, N,N-diethyl-4-{8-quinolinyl[1-(2-thienylmethyl)-4-piperidinylidene]methyl}benzamide], the Emax stood at 140% in test [1], 120% in test [2] and 98.5% at cloned human δ receptor.

As for `CCN(CC)C(=O)c1ccc(C(=C2CCN(Cc3ccoc3)CC2)c2cccc3cccnc23)cc1` [Example 5, N,N-diethyl-4-[[1-(3-furylmethyl)-4-piperidinylidene](8-quinolinyl)methyl]benzamide], the results for the Emax (in test [1]; in test [2]; on cloned human δ receptor) were 147%, 135% and 99%, respectively.

Turning to `CCN(CC)C(=O)c1ccc(C(=C2CCN(Cc3ccsc3)CC2)c2cccc3cccnc23)cc1` [Example 6, N,N-diethyl-4-{8-quinolinyl[1-(3-thienylmethyl)-4-piperidinylidene]methyl}benzamide], the maximal response (Emax) stood at 140% in test [1], 135% in test [2] and 123% at cloned human δ receptor.

With `CCN(CC)C(=O)c1ccc(C(=C2CCN(Cc3ccccn3)CC2)c2cccc3cccnc23)cc1` [Example 7], the Emax in test [1] amounted to 124%; in test [2], 126%; on cloned human δ receptor, 97.6%.

In the case of `CCN(CC)C(=O)c1ccc(C(=C2CCN(Cc3ncc[nH]3)CC2)c2cccc3cccnc23)cc1` [Example 8], the Emax in test [1] was 138%; in test [2], 148%; on cloned human δ receptor, 111%.

Take `CCN(CC)C(=O)c1ccc(C(=C2CCN(Cc3c[nH]cn3)CC2)c2cccc3cccnc23)cc1` [Example 9]: the Emax in test [1] is 123%; in test [2] it was 112%; on cloned human δ receptor, 100%.

With `CCN(CC)C(=O)c1ccc(C(=C2CCN(Cc3ccncc3)CC2)c2cccc3cccnc23)cc1` [Example 10], the Emax in test [1] was found to be 110%; in test [2], 109%; on cloned human δ receptor, 118%.
